Data taken from patent US6723897B2, “Methods for controlling gibberellin levels” (Monsanto Technology, LLC, priority 1998, dated 2004).

How the values were obtained:
[1] = Distribution of 14C label in soybean plant parts after seed treatment
Description: (§1) ^14C-radiolabelled compounds are obtained from Lew Mander (Australian National University). ^14C-GA3 is dissolved in water:ethanol, 80:20, v/v; ^14C-GA9 and ^14C-GA12 are dissolved in 100% ethanol. Seeds of Asgrow 3237 soybeans are treated separately with solutions of each of the ^14C-radiolabelled compounds (1.7-6.8 μg; 10-40 ppm; 111,000-2,000,000 dpm/seed) by placing one to four μl of the dosing solution directly on the seed coat (^14C-GA3, GA9, and GA12), or on the hilum portion of the seed (^14C-GA3). After evaporation of the carrier solvent (approx. one hour), the treated seed is planted in containers containing approximately 30 gm of Metromix-350, and transferred to a growth chamber. Plants are grown under a 12 hour light/12 hour dark regime at 92° F. (33° C.)and 75% humidity. The pattern of uptake and translocation of ^14C-radioactivity in treated seed is monitored up to 12 days past initial treatment. For most experiments, three replicate plants are harvested at one hour after treatment, one day after treatment (DAT), two DAT, three DAT, six or seven DAT, and 12 DAT. At the time of each harvest, plants are divided into leaves, epicotyl, cotyledon, hypocotyl, and roots. The level of ^14C-radioactivity in different plant parts is determined by extraction of plant tissues with aqueous methanol and scintillation counting. The extent of metabolism of the ^14C-labelled GA compounds in planta is determined by HPLC analysis of plant extracts. The details are as follows.
(§2) The general extraction procedure consisted of blending the plant parts in a high speed polytron tissue homogenizer for 1-5 minutes with 10-20 ml of ice-cold methanol:water, 80:20, v/v, followed by vacuum filtration through a Whatman glass fiber filter. The filter cake is re-extracted as necessary using the procedure described above until an insignificant amount of radioactivity is removed. Prior to combining the extracts from each sample, aliquots are weighed and analyzed by liquid scintillation counting (LSC) to determine the amount of extracted radioactivity in each extract. Aliquots of the air-dried filter cakes are combusted and analyzed by LSC in order to determine the amount of non-extracted radioactivity. The extracts are combined and, when necessary, concentrated by rotary evaporation at a bath temperature of less than 35° C. to a small volume for analysis by HPLC to determine the extent of metabolism of the ^14C-labelled GA compounds in planta.

[2] = test system: AX5/antisense CPScc soybean line 46 (R2); assay: Hilum seed treatment of epicotyl-intensive GA-deficient soybean, seedling height (FIG. 42); assay type: in vivo, Glycine max; conditions: 8 DAP
Description: These studies are performed on soybean plants engineered to express their GA-deficient phenotype throughout the life cycle via the use of the constitutive FMV promoter (line 719, FMV/antisense CPScc). In contrast to the constitutive FMV promoter, the peak activity of the AX5 promoter is developmentally restricted to the soybean seedling axis (epicotyl) three to five days after the start of imbibition, with limited expression beyond the seedling stage of development. Soybean lines transformed with the […] cassette therefore display an epicotyl-intensive dwarf phenotype. In these lines, inhibition of the hypocotyl is modest; most of the total height reduction in these plants is due to shortening of the epicotyl. Rescue of […] soybean plants therefore presents different technical challenges from those required for rescue of constitutively GA-deficient transgenic dwarf soybean lines containing the […] construct. […] Seed from both lines is produced from greenhouse-grown plants. […] If multiple applications are made to seeds, the previous application is allowed to dry before a subsequent application is made. […] (29° C.) day and 75° F. night (24° C.). Pots are watered as necessary by overhead hand watering. Hypocotyl and epicotyl measurements are made for each plant at various stages of plant growth. […] The results are shown in FIG. 42, where the error bar represents +/-two times the standard error of the mean (n=12-15). […] The upper dashed horizontal line represents the total height of untreated wild-type […] soybeans. Measurements are made 8 days after planting.

[3] = test system: constitutively GA-deficient transgenic dwarf soybean line 719; assay: Field trial of seed coating application rates, GA-deficient soybean; assay type: in vivo, Glycine max; conditions: for 719 Height, cm, Heavy soil / 719 Height, cm, Light soil / No. 719 Emerged, Heavy soil / No. 719 Emerged, Light soil / No. 719 Not Rescued, Heavy soil / No. 719 Not Rescued, Light soil: seed coating
Description: GA3, GA3-3-acetate, GA5, GA9, and GA12 are evaluated in further field trials. […] The objectives of these tests are: 1) to determine if seed coatings, as compared to imbibition, of GA compounds facilitate rescue of constitutively GA-deficient transgenic dwarf soybeans (transgenic lines 719−2 plus 719+17) without causing elongation of wild-type soybeans (line A4922), and 2) to determine the seed treatment rate ranges for each of the selected GA compounds that would provide rescue of constitutively GA-deficient transgenic dwarf soybeans (transgenic lines 719−2 plus 719+17) without causing elongation of wild-type soybeans (line A4922).
Seeds are treated with GA3, GA5, GA9, GA12, and GA3-3-acetate at rates of 0, 0.1, 1, 10, and 100 μg/seed. These GA compounds are applied to the seeds using a Hege 11 seed treater (Hans-Ulrich Hege GmbH & Co., Waldenburg, Germany); 100% acetone is used as the carrier solvent. The amount of liquid introduced into the seed treater is six fluid ounces/100 lbs seed rate. In addition, GA12 is tested at 50 μg/seed. The untreated control (UTC) consisted of dry, untreated seeds. Seeds of constitutively GA-deficient transgenic dwarf soybean line 719 and wild-type A4922 are sown in both light and heavy soil. The planting depth is 0.5 to 1 inch (1.27 to 2.54 cm); watering is via drip irrigation. The experiment is carried out in three repetitions, using 25 seeds/plot (one five foot (152.4 cm) long row) for line 719, and 75 seeds/plot (two eight foot (243.8 cm) rows) for line A4922. Observations included total emergence, number of dwarfs not rescued, uniformity in plant height, average plant height, visual notes, and digital photos.
In all the experiments reported in Tables 17-24, treatments are replicated three times in a randomized block design. Data are analyzed using LSD (least significant difference) 0.05 probability using the PRM 5.0 Statistical Analysis Program (SAS Institute, North Carolina).

[4] = Half-lives of 14C-labelled GA compounds in planta; conditions: Asgrow 3237, soybean (Glycine max), in vivo
Description: as §1, with “At the time of each harvest, plants are divided into leaves, epicotyl, cotyledon, hypocotyl, and roots.” left out, “The details are as follows.” left out
as §2, with “The extracts are combined and, when necessary, concentrated by rotary evaporation at a bath temperature of less than 35° C. to a small volume for analysis by HPLC to determine the extent of metabolism of the ^14C-labelled GA compounds in planta.” left out

| Compound | effect on line 46 total height [2] | 719 Height, cm, Heavy soil ([3]; 0.1 μg compound per seed) | 719 Height, cm, Light soil ([3]; 0.1 μg compound per seed) | No. 719 Emerged, Heavy soil ([3]; 0.1 μg compound per seed) | No. 719 Emerged, Light soil ([3]; 0.1 μg compound per seed) | No. 719 Not Rescued, Heavy soil ([3]; 0.1 μg compound per seed) | No. 719 Not Rescued, Light soil ([3]; 0.1 μg compound per seed) | 719 Height, cm, Heavy soil ([3]; 1 μg compound per seed) | 719 Height, cm, Light soil ([3]; 1 μg compound per seed) | No. 719 Emerged, Heavy soil ([3]; 1 μg compound per seed) | No. 719 Emerged, Light soil ([3]; 1 μg compound per seed) | No. 719 Not Rescued, Heavy soil ([3]; 1 μg compound per seed) | No. 719 Not Rescued, Light soil ([3]; 1 μg compound per seed) | 719 Height, cm, Heavy soil ([3]; 10 μg compound per seed) | 719 Height, cm, Light soil ([3]; 10 μg compound per seed) | No. 719 Emerged, Heavy soil ([3]; 10 μg compound per seed) | No. 719 Emerged, Light soil ([3]; 10 μg compound per seed) | No. 719 Not Rescued, Heavy soil ([3]; 10 μg compound per seed) | No. 719 Not Rescued, Light soil ([3]; 10 μg compound per seed) | 719 Height, cm, Heavy soil ([3]; 100 μg compound per seed) | further results |
| --- | --- | --- | --- | --- | --- | --- | --- | --- | --- | --- | --- | --- | --- | --- | --- | --- | --- | --- | --- | --- | --- |
| C=C1C[C@]23C[C@@]1(O)CC[C@H]2[C@@]12C=C[C@H](O)[C@@](C)(C(=O)O1)[C@H]2[C@@H]3C(=O)O [GA3, gibberellic acid] | rescued AX5/asCPScc soybean line 46 total height, with some hypocotyl over-elongation | 5.7 cd cm | 5.7 ef cm | 19.7 a-d | 21.3 abc | 0 f | 1 | 5.3 cde cm | 5.7 ef cm | 17.3 b-e | 20.7 abc | 0.3 ef | 0 | 10.3 a cm | 11.7 bc cm | 18.3 a-e | 21.0 abc | 0 f | 0 | 9.3 ab cm | ^14C Label Distribution (% of dose), Cotyledon ([1]; 3 DAP): 85 % of dose; ^14C Label Distribution (% of dose), Hypocotyl ([1]; 3 DAP): 1.5 % of dose; ^14C Label Distribution (% of dose), Root ([1]; 3 DAP): 0.5 % of dose; ^14C Label Distribution (% of dose), Cotyledon ([1]; 12 DAP): 72 % of dose; ^14C Label Distribution (% of dose), Epicotyl ([1]; 12 DAP): 0.2 % of dose; ^14C Label Distribution (% of dose), Hypocotyl ([1]; 12 DAP): 1.4 % of dose; ^14C Label Distribution (% of dose), Leaves ([1]; 12 DAP): 0.9 % of dose; ^14C Label Distribution (% of dose), Root ([1]; 12 DAP): 2.8 % of dose; 719 Height, cm, Light soil ([3]; 100 μg compound per seed): 13.7 a cm; No. 719 Emerged, Heavy soil ([3]; 100 μg compound per seed): 8.0 f; No. 719 Emerged, Light soil ([3]; 100 μg compound per seed): 16.7 cd; No. 719 Not Rescued, Heavy soil ([3]; 100 μg compound per seed): 0 f; No. 719 Not Rescued, Light soil ([3]; 100 μg compound per seed): 0; half-life [4]: 48 to 72 h |
| C=C1C[C@]23C[C@@]1(O)CC[C@H]2[C@@]12C=C[C@H](OC(C)=O)[C@@](C)(C(=O)O1)[C@H]2[C@@H]3C(=O)O [GA3-3-acetate] | rescued AX5/asCPScc soybean line 46 total height, with some hypocotyl over-elongation | 3.3 e-i cm | 5.3 efg cm | 18.7 a-d | 21.0 ab | 0.3 ef | 0.7 | 6.0 cd cm | 6.3 e cm | 21.3 abc | 21.7 ab | 0 f | 0.3 | 9.0 ab cm | 9.3 cm·days | 17.7 a-e | 20.3 a-d | 0 f | 0 | 8.7 ab cm | 719 Height, cm, Light soil ([3]; 100 μg compound per seed): 12.0 b cm; No. 719 Emerged, Heavy soil ([3]; 100 μg compound per seed): 16.7 b-e; No. 719 Emerged, Light soil ([3]; 100 μg compound per seed): 17.7 b-f; No. 719 Not Rescued, Heavy soil ([3]; 100 μg compound per seed): 0 f; No. 719 Not Rescued, Light soil ([3]; 100 μg compound per seed): 0; preferred seed coating rate in this experiment ([3]; judged on lines 719 and A4922, light and heavy soil): about 1 μg per seed |
| C=C1C[C@]23C[C@@]1(O)CC[C@H]2[C@@]12CC=C[C@@](C)(C(=O)O1)[C@H]2[C@@H]3C(=O)O [GA5] | rescued AX5/asCPScc soybean line 46 total height, with some hypocotyl over-elongation | 5.0 def cm | 4.3 fg·cm | 22.0 ab | 21.7 ab | 1.7 def | 4.3 c | 4.7 g·cm·days | 6.3 e cm | 21.0 abc | 22.7 a | 0.7 ef | 0 | 7.3 bc cm | 11.3 bc cm | 20.0 a-d | 20.0 a-d | 0.3 ef | 0.7 | 9.0 ab cm | 719 Height, cm, Light soil ([3]; 100 μg compound per seed): 12.0 b cm; No. 719 Emerged, Heavy soil ([3]; 100 μg compound per seed): 12.3 ef; No. 719 Emerged, Light soil ([3]; 100 μg compound per seed): 14.3 f; No. 719 Not Rescued, Heavy soil ([3]; 100 μg compound per seed): 0 f; No. 719 Not Rescued, Light soil ([3]; 100 μg compound per seed): 0 |
